Results on 1 compound are retold here after PMC9964544, “Evidence of Insulin-Sensitizing and Mimetic Activity of the Sesquiterpene Quinone Avarone, a Protein Tyrosine Phosphatase 1B and Aldose Reductase Dual Targeting Agent from the Marine Sponge Dysidea avara” (Pharmaceutics, 2023).

Structures are written as SMILES. Entries after “also recorded” stand apart in the source; their conditions may differ.

One experiment addresses T1, human recombinant AKR1B1 (Homo sapiens, UniProt P15121).
T1 construct: made in house
Nature of the experiment: AKR1B1 inhibition assay with L-idose as substrate, NADPH oxidation (IC50). It is filed as biochemical. To be noted: 10 mU AKR1B1, 1.6 mM L-idose, 37 °C; IC50 ± SD. The procedure:
The purification of human recombinant AKR1B1 was performed as previously described. […] The purified enzyme, stored at −80 °C in 10 mM sodium phosphate buffer pH 7.0 containing 2 mM DTT and 30% (w/v) glycerol, was extensively dialyzed against 10 mM sodium phosphate buffer pH 7.0 before use. […] The fractions containing PTP1B were collected, concentrated, and injected into a Superdex G75 column equilibrated with Tris-HCl buffer pH 8.0 containing 150 mM NaCl and 1 mM mercaptoethanol. The fractions containing PTP1B were collected and concentrated; the purity of preparation was evaluated using SDS-PAGE. The PTP1B preparation was split into fractions of 0.5 mL volume; each fraction was stored at −80 °C.
The standard assay mixture (final volume 0.7 mL) was contained in 0.25 M sodium phosphate buffer pH 6.8, 0.18 mM NADPH, 0.4 M ammonium sulfate, 0.5 mM EDTA, and 4.7 mM GAL. One unit of enzyme activity is the amount of enzyme that catalyzes the conversion of 1 µmol of substrate/min in the above assay conditions. The same assay conditions were adopted in the inhibition studies using L-idose as the substrate at the indicated concentrations. PTP1B activity was determined using p-nitrophenylphosphate (pNPP) as the synthetic substrate. The pNPP was dissolved in 0.075 M ββ-dimethylglutarate buffer, pH 7.0, containing 1 mM dithiothreitol. Each assay was carried out at 37 °C in 1 mL of assay buffer. The reactions were started by diluting an aliquot of PTP1B preparation in the assay buffer; after 30 min, the reactions were stopped by adding 2 mL of 0.2 M KOH solution. The amount of p-nitrophenol released was determined spectrophotometrically, reading the absorbance of solutions at 400 nm (ε400nm = 18 mM^−^1cm^−^1).

The next experiment relates to C2C12 cells. As to the kind of experiment: Seahorse XFe96 Mito Stress Test in C2C12 cells. To be noted: C2C12 treated for 30 min. It is filed as cell-based. As for the experimental part: C2C12 cells (3 × 10^4 cells/well) were placed in XFe96 cell culture plates. After 24 h of incubation at 37 °C, cell growth medium was substituted with an XF base medium supplemented with 2 mM glutamine, 1 mM sodium pyruvate, and 10 mM glucose, pH 7.4. The plate was then transferred in a non-CO2 incubator for 1 h at 37 °C to pre-equilibrate the cells before analysis. An XF Mito Stress Test was performed to assay the cells’ ability to exploit mitochondrial oxidative metabolism, according to the manufacturer’s instructions. The oxygen consumption rate (OCR) was evaluated after the injection of a sequence of compounds that interfere with the electron transport chain: oligomycin (1 μM), carbonyl cyanide-4 (trifluoromethoxy) phenylhydrazone (FCCP) (1 μM), and Rotenone/Antimycin A (0.5 μM). All data were normalized on the protein content of each well.
Figure 10 Results of Mito Stress Test assay. (A) C2C12 cells were subjected to Seahorse XFe96-Mito Stress Test analysis to evaluate oxygen consumption rate (OCR) in real time. OCR values were normalized on protein content. (B) Basal respiration, ATP-linked OCR, spare capacity, maximal respiration, and proton leak were calculated using data obtained from OCR plot after the administration of the adenosine triphosphate ATP synthase inhibitor oligomycin, the proton uncoupler carbonylcyanide p-trifluoromethoxyphenylhydrazone (FCCP), and the combination of the respiratory complex I inhibitor rotenone and the respiratory complex III inhibitor antimycin A. Each point reported in the OCR plot represents the medium value ± SEM obtained from independent replicates (n = 3 or 4). One-way ANOVA with Dunnett’s correction was used to assess differences in experimental features by using Prism 8 software (GraphPad). Statistical significance is annotated as follows: * p ≤ 0.01, ** p ≤ 0.001, *** p ≤ 0.0001, (t-test); ns, not significant; FC, fold change.

The next experiment addresses T2, Human PTP1B (Homo sapiens, UniProt P18031).
T2 sequence (P18031 1-302): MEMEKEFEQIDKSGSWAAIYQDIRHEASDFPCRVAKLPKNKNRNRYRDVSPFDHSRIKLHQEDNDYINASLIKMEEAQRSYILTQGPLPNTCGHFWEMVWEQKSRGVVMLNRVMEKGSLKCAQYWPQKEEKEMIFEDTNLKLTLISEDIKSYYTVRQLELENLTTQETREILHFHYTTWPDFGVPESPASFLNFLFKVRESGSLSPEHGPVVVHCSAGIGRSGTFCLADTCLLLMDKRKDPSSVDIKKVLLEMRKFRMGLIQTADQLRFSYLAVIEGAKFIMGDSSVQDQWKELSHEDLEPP
Nature of the experiment: Kinetic analysis of PTP1B inhibition (Lineweaver-Burk plot, KM,app fit, dilution assay). To be noted: for Ki: fit of KM,app against avarone concentration, Equation (3).

Experimental for Human PTP1B: Equation (2) refers to a general case of a tight binding non-competitive inhibition model. […] The mechanism of action of avarone was evaluated by analyzing the effect of increasing avarone concentrations on the main kinetic parameters (KM and Vmax) of PTP1B. Data obtained were analyzed using the Lineweaver–Burk plot. The value of Ki was determined using the appropriate equations.
The second inhibitor molecule (IB) can only bind to EIA, generating the ternary complex (EIAIB). Considering the prevailing rapid equilibrium conditions, it was possible to derive Equation (3), which describes the dependence of KM on the avarone concentration. […] (3) KM,app=KM×{1+[I]/KiA+[I]^2/KiA×KiB}
Figure 4 Impact of avarone on PTP1B-catalyzed hydrolysis of pNPP: the Lineweaver–Burk plot. Data reported in the figure were obtained by measuring the initial hydrolysis rate of pNPP at seven different concentrations, in the presence of increasing concentration of avarone. The concentrations of avarone used were: 0 µM, (●); 4 µM, (☐); 5.5 µM, (▲); 7 µM (▽). Each test was carried out in triplicate. Data reported in the figure represent the mean value ± SD.
Figure 5 Determination of KiA and KiB for avarone. Dependence of KM,app from the avarone concentration. Data obtained were fitted using Equation (3). Data fitting was obtained using OriginPlus 2021 software.
Dilution assay. An aliquot of PTP1B was incubated for 1 h at 37°C in the
presence of saturating concentration (50 µM) of avarone (2). A control test was prepared
diluting PTP1B solution with the same volume of DMSO, the solvent used to dissolve 2.
After 1 h, an aliquot of samples was withdrawn and diluted 400 fold in buffer assay to
evaluate the residual activity of the enzyme. All tes ts were carried out in triplicate. Data
obtained were normalized respect to control sample.
Dependence of K M and Vmax from avarone (2) concentration. The concentration
of avarone used were: 0, 4.0, 5.5, and 7.0 µM. To calculate both K M and Vmax valued, we
determined the initial hydrolysis rate at seven different substrate (pNPP) concentrations
(0.5, 1, 2 4, 8 16 , 25 mM). Experimental data were fitted with Michaelis -Menten equation
using OriginPro 2021 software

`CC1=CCC[C@H]2[C@](C)(CC3=CC(=O)C=CC3=O)[C@@H](C)CC[C@]12C` [avarone (2), avarone]: the IC50 at human recombinant AKR1B1 is 78 ± 17 nM. In addition, in the experiment with C2C12 cells, the “basal respiration (OCR)” value is given as “does not alter basal respiration”, the maximal respiration result was “slightly increases; also recorded: increases”, the “oxygen-dependent ATP production” value is “does not impair the oxygen-dependent ATP production” and the proton leak rate result is reported as “without enhancing the proton leak rate”. For the same compound, the spare capacity entry in the experiment with C2C12 cells was “slightly increases; also recorded: increases”. Besides, on Human PTP1B (50 µM avarone, 1 h at 37°C, diluted 400 fold), the “reversibility of PTP1B inhibition (dilution assay)” value is “reversible inhibitor”. This compound also registered a Ki on Human PTP1B (KiA PTP1B (first inhibitor molecule)) of 15100 ± 1400 nM. Further, at Human PTP1B (KiB PTP1B (second inhibitor molecule, binds EIA)), the Ki was determined as 1000 ± 100 nM. The “type of PTP1B inhibition” value on Human PTP1B (pNPP, 0-7 µM avarone, double reciprocal plot) is “competitive inhibitor; also recorded: cooperative pure competitive inhibition by two non-exclusive inhibitor molecules”.

As a reminder, the IC50 is the concentration at which inhibition is half-maximal.
